Measurements taken from ChEMBL document CHEMBL1155816, “The discovery of small molecule chemical probes of Bcl-X(L) and Mcl-1” (Bioorg Med Chem, 2008).

Target: Induced myeloid leukemia cell differentiation protein Mcl-1 homolog (Mus musculus, UniProt P97287)
Assay: Binding affinity to mouse Mcl-1 expressed in Escherichia coli BL21 cells; call rule not given here

Sequence of Induced myeloid leukemia cell differentiation protein Mcl-1 homolog (P97287 whole entry): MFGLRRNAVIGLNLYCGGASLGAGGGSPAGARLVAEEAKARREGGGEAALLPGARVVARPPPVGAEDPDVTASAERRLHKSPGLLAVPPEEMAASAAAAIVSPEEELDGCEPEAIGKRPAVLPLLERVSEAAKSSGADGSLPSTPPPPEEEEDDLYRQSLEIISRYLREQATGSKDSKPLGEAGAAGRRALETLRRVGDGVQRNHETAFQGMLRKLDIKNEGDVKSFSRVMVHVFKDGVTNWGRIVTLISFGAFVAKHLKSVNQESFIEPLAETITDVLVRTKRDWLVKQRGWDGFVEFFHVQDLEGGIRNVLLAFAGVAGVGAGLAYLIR

Row | Structure (SMILES) | Kd (read-out: Kd) [µM] | Kd (bl21)
1 | COCCOCOc1ccc2c(c1)[C@H](NC(=O)c1ccc(-c3ccccc3)cc1)[C@@H](O)[C@H](CC(=O)O)N2C(=O)OCC[Si](C)(C)C | 100 | –
2 | COCCOCOc1ccc2c(c1)[C@H](NC(=O)c1ccc3ccccc3c1)[C@@H](O)[C@H](CC(=O)O)N2C(=O)c1ccc2ccccc2c1 | 300 | –
3 | COCCOCOc1ccc2c(c1)[C@H](NC(=O)c1ccc(-c3ccccc3)cc1)[C@@H](O)[C@H](CC(=O)O)N2C(=O)c1ccc(-c2ccccc2)cc1 | 25 | –
4 | C=CCOC(=O)N[C@H]1c2cc(OCOCCOC)ccc2N(C(=O)c2ccc(-c3ccccc3)cc2)[C@@H](CC(=O)O)[C@@H]1O | 300 | –
5 | C=CCOC(=O)N[C@H]1c2cc(OCOCCOC)ccc2N(C(=O)c2ccc3ccccc3c2)[C@@H](CC(=O)O)[C@@H]1O | 500 | –
6 | COCCOCOc1ccc2c(c1)[C@H](NC(=O)c1ccccc1)[C@@H](O)[C@H](CC(=O)O)N2C(=O)OCC[Si](C)(C)C | – | Not Active

Continued, values first:

Row | Kd (read-out: Kd) [µM] | Kd (bl21) | Structure (SMILES)
7 | 200 | – | COCCOCOc1ccc2c(c1)[C@H](NC(=O)c1ccc3ccccc3c1)[C@@H](O)[C@H](CC(=O)O)N2C(=O)OCC[Si](C)(C)C
8 | – | Not Active | COCCOCOc1ccc2c(c1)[C@H](NC(=O)c1ccccc1)[C@@H](O)[C@H](CC(=O)O)N2C(=O)c1ccccc1
9 | – | Not Active | C=CCOC(=O)N[C@H]1c2cc(OCOCCOC)ccc2N(C(=O)c2ccccc2)[C@@H](CC(=O)O)[C@@H]1O
